Source: the NIST ThermoML archive (doi:10.1021/je030136n)

Assay: xn = mol fraction of the nth substance listed
Settings: Liquid, Pulse-echo method

CCCCCCC [heptane] + CCCO
Settings	speed of sound [m/s]
298.17 K, 30400 kPa, x2 = 0.3008	1319.3
298.17 K, 45590 kPa, x2 = 0.3008	1394.1
298.17 K, 60790 kPa, x2 = 0.3008	1461.5
298.17 K, 60790 kPa, x2 = 0.7986	1471.8
298.17 K, 75990 kPa, x2 = 0.1008	1526.8
298.17 K, 75990 kPa, x2 = 0.3008	1523.2
298.17 K, 75990 kPa, x2 = 0.7986	1529.5
298.17 K, 91190 kPa, x2 = 0.1008	1584.5
298.17 K, 91190 kPa, x2 = 0.7016	1580.7
298.17 K, 111450 kPa, x2 = 0.7016	1647.6
298.18 K, 100 kPa, x2 = 0.3008	1128.6
298.18 K, 100 kPa, x2 = 0.6027	1144.3
298.18 K, 45590 kPa, x2 = 0	1400.1
298.18 K, 60790 kPa, x2 = 0.1008	1464.2
298.18 K, 60790 kPa, x2 = 0.7016	1467.2
298.18 K, 75990 kPa, x2 = 0.7016	1526
298.18 K, 101320 kPa, x2 = 0.7016	1614.9
298.18 K, 111450 kPa, x2 = 0.1008	1655.1
298.18 K, 121580 kPa, x2 = 0.7016	1678.9
298.19 K, 30400 kPa, x2 = 0.6027	1326.4
298.19 K, 45590 kPa, x2 = 0.6027	1398.6
298.19 K, 45590 kPa, x2 = 0.7016	1403
298.19 K, 60790 kPa, x2 = 0	1468.7
298.19 K, 91190 kPa, x2 = 0.3008	1580.1
298.19 K, 91190 kPa, x2 = 0.6027	1579
298.2 K, 100 kPa, x2 = 0.7016	1154
298.2 K, 30400 kPa, x2 = 0.7016	1332.1
298.2 K, 121580 kPa, x2 = 0.7986	1679.9
298.22 K, 75990 kPa, x2 = 0.6027	1523.5
298.23 K, 60790 kPa, x2 = 0.6027	1463.6
298.25 K, 101320 kPa, x2 = 0.7986	1616.7
298.26 K, 91190 kPa, x2 = 0.7986	1583
303.06 K, 100 kPa, x2 = 0	1108.9
303.07 K, 45590 kPa, x2 = 0	1384.4
303.08 K, 60790 kPa, x2 = 0.6027	1449.5
303.08 K, 101320 kPa, x2 = 0.6027	1601.2
303.09 K, 101320 kPa, x2 = 0.7986	1604.9
303.1 K, 75990 kPa, x2 = 0.7986	1516.7
303.1 K, 91190 kPa, x2 = 0.7986	1570.9
303.1 K, 101320 kPa, x2 = 0	1612.6
303.1 K, 111450 kPa, x2 = 0.6027	1634.7
303.1 K, 121580 kPa, x2 = 0	1681.2
303.11 K, 111450 kPa, x2 = 0.4992	1635.3
303.11 K, 121580 kPa, x2 = 0.4992	1667.7
303.11 K, 121580 kPa, x2 = 0.7986	1668.6
303.12 K, 100 kPa, x2 = 0.7986	1147.6
303.12 K, 30400 kPa, x2 = 0.7986	1324.1
303.12 K, 45590 kPa, x2 = 0.7016	1388.2
303.12 K, 45590 kPa, x2 = 0.7986	1394.5
303.12 K, 101320 kPa, x2 = 0.4992	1601.3
303.12 K, 111450 kPa, x2 = 0.7986	1637.5
303.12 K, 121580 kPa, x2 = 0.7016	1667.3
303.13 K, 30400 kPa, x2 = 0	1307
303.13 K, 30400 kPa, x2 = 0.7016	1316.2
303.13 K, 60790 kPa, x2 = 0.7986	1458.1
303.13 K, 75990 kPa, x2 = 0.7016	1512.7
303.13 K, 91190 kPa, x2 = 0.4992	1565.8
303.13 K, 91190 kPa, x2 = 0.7016	1567.8
303.13 K, 101320 kPa, x2 = 0.7016	1602.5
303.13 K, 111450 kPa, x2 = 0.7016	1635.6
303.14 K, 100 kPa, x2 = 0.7016	1134.5
303.14 K, 30400 kPa, x2 = 0.4992	1306.5
303.14 K, 30400 kPa, x2 = 0.6027	1310
303.14 K, 60790 kPa, x2 = 0.7016	1453.1
303.14 K, 75990 kPa, x2 = 0.4992	1509.2
303.14 K, 91190 kPa, x2 = 0.6027	1565.9
303.15 K, 100 kPa, x2 = 0.6027	1124
303.15 K, 45590 kPa, x2 = 0.6027	1383.2
303.15 K, 60790 kPa, x2 = 0.4992	1448
303.15 K, 75990 kPa, x2 = 0.6027	1509.9
303.15 K, 111450 kPa, x2 = 0	1647.6
303.16 K, 100 kPa, x2 = 0.4992	1116
303.16 K, 15200 kPa, x2 = 0.1008	1213.6
303.16 K, 45590 kPa, x2 = 0.4992	1380.9
303.16 K, 121580 kPa, x2 = 0.3008	1669.9
303.17 K, 15200 kPa, x2 = 0	1218.6
303.17 K, 75990 kPa, x2 = 0	1517.2
303.17 K, 101320 kPa, x2 = 0.1008	1607.1
303.17 K, 101320 kPa, x2 = 0.3008	1602.4
303.18 K, 60790 kPa, x2 = 0	1453.7
303.18 K, 91190 kPa, x2 = 0	1575.7
303.18 K, 111450 kPa, x2 = 0.1008	1642
303.18 K, 121580 kPa, x2 = 0.6027	1666.6
303.19 K, 121580 kPa, x2 = 0.1008	1675.4
303.2 K, 100 kPa, x2 = 0.3008	1107.1
303.2 K, 30400 kPa, x2 = 0.3008	1301.8
303.2 K, 60790 kPa, x2 = 0.1008	1448.8
303.21 K, 30400 kPa, x2 = 0.1008	1301.9
303.21 K, 45590 kPa, x2 = 0.1008	1379.3
303.21 K, 60790 kPa, x2 = 0.3008	1446
303.21 K, 75990 kPa, x2 = 0.1008	1512.1
303.21 K, 75990 kPa, x2 = 0.3008	1508.5
303.21 K, 91190 kPa, x2 = 0.1008	1570.5
303.21 K, 91190 kPa, x2 = 0.3008	1566.1
303.22 K, 100 kPa, x2 = 0.1008	1103.8
303.23 K, 45590 kPa, x2 = 0.3008	1377.7
303.25 K, 111450 kPa, x2 = 0.3008	1636.9
